From US20260315486A1, “ALECTINIB FOR THE TREATMENT OF ALK FUSION-POSITIVE SOLID OR CNS TUMOURS” (Hoffmann-La Roche Inc., priority 2023, published 2026)

What was measured:
[1] = stated as known; may result in bradycardia; cited from earlier work
[2] = Paediatric clinical trial, Part 1 safety run-in: safety and tolerability (dose-limiting toxicities, adverse events); assay type: in vivo, human (paediatric patients)
Excerpt: (§1) Alectinib will be administered orally or via feeding tube to participants BID on Days 1-28 of each 28-day cycle. All participants will be closely monitored for adverse events (regardless of relationship to study drug) throughout the study and for at least 28 days after the final dose of study treatment or until initiation of a new anti-cancer therapy, whichever occurs first.
Owing to the limitations of predicting exposure in children who are <2 years old, before enrolment of participants <2 years old, the investigator must discuss a participant's case with the Medical Monitor until at least 3 participants who are ≥2-6 years old have completed one cycle of treatment. The first participant enrolled must complete at least 8 days of treatment without a DLT before subsequent participants can enroll. If a dose adjustment is required because of toxicity, the same approach will be taken for the first participant at the new dose level. Participants will be closely monitored for adverse events during a DLT assessment window of one cycle (28 days). Participants who discontinue from the study prior to completing the DLT assessment window or who complete <80% (i.e., […]) of the prescribed therapy for that cycle for reasons other than a DLT will be considered non-evaluable. DLT non-evaluable participants will be replaced, unless the Medical Monitor determines that replacement is not necessary for a dose adjustment decision. The Medical Monitor will review all participants who take prohibited therapies, foods, or supplements or who receive supportive care during the DLT assessment window that would confound the evaluation of DLTs (not including supportive care described below as part of the DLT definition) to determine DLT evaluability and whether such participants will be replaced.
During the safety run-in phase, any one of the following events will be considered a DLT if it occurs during the DLT assessment window and is assessed by the investigator to be related or possibly related to alectinib (rules for attributing causality are defined below in ‘Adverse events’). Adverse events identified as DLTs, as defined below, must be reported to the Sponsor within 24 hours.
The following will be considered as a DLT: • Any treatment-related death • Grade 4 neutropenia (ANC<500 cells/mm^3 which is equivalent to ANC<0.5×10^9/L) lasting at least 7 days • Febrile neutropenia: ANC<1000 cells/mm^3 (which is equivalent to ANC<1×10^9/L) with a single temperature of >38.3° C. (101° F.) or a sustained temperature of ≥38° C. (100.4° F.) for more than 1 hour • Grade 4 anaemia • Grade 4 thrombocytopenia (i.e., platelet count <25.0×10^9/L) or Grade 3 thrombocytopenia associated with clinically significant bleeding or any thrombocytopenia requiring platelet transfusion. • Of note, the post-surgical platelet threshold for platelets transfusion could be higher. […]

[3] = test system: FGFR2; conditions: stated without data; cited from earlier work
[4] = test system: ALK fusion-positive solid or CNS tumours; assay: Paediatric clinical trial, Part 1 safety run-in: investigator-reported tumour response (RANO / RECIST v1.1 / INRC); assay type: in vivo, human (paediatric patients)
Excerpt: The study consists of three parts, all enrolling paediatric participants with solid or CNS tumours with known ALK fusion for whom prior treatment has proven to be ineffective or for whom there is no satisfactory treatment available: • Part 1, dose confirmation and safety run-in: to identify the RP2D for paediatric participants, achieving the exposure observed in the adult population • This portion will consist of a safety run-in with a minimum of 6 participants (up to approximately 18 participants) to assess the safety, tolerability, and pharmacokinetics of alectinib in the paediatric population. The initial paediatric dose will be assessed and refined by modelling and simulation prospectively. • Part 2, initial expansion: to evaluate the safety and preliminary efficacy of alectinib in newly enrolled paediatric participants treated at the paediatric RP2D. A minimum of 10 participants will be enrolled in this part of the study. If 4 or more participants achieve an objective response to alectinib (as described in Part 2, below), additional expansion will be performed. • Part 3, additional expansion: This portion of the study will enroll approximately 14 additional paediatric participants. An integrated efficacy analysis accounting for every participant treated at paediatric RP2D across all cohorts will be used for the confirmation of the efficacy of alectinib.
as §1
Response will be assessed by the investigator on the basis of physical examinations, computed tomography (CT) scans, and other modalities where relevant (e.g., magnetic resonance imaging [MRI] scans, brain scans, bone marrow examinations, fluorodeoxyglucose-positron emission tomography (FDG-PET), metaiodobenzoguanidine [MIBG] scan), according to RANO, INRC, and RECIST v1.1 (see below). Tumour assessment imaging should include all areas of known disease.
An objective response should be confirmed by repeat assessments ≥4 weeks after initial documentation. The same radiographic procedure used to assess disease sites at screening should be used throughout the study (e.g., the same contrast protocol for CT scans). To the extent that is feasible, assessments should be performed by the same evaluator to ensure internal consistency across visits.
Selected sections from the Response Evaluation Criteria in Solid Tumors (RECIST), Version 1.1 (Eisenhauer et al., 2009, Eur J Cancer, 45:228-47) are presented below, with slight modifications.
Antitumor activity will be assessed based on clinical and radiographic evidence as described by the INRC (Park et al. 2017, Clin Oncol; 35:2580-7).
Antitumor activity will be assessed based on clinical and radiographic evidence as described by the RANO criteria.
The primary efficacy endpoint is ORR in participants treated at the paediatric RP2D, as assessed by BICR, defined as the proportion of participants with an objective response. The objective response for individual participants will be assessed per RECIST v1.1 for participants with extracranial tumours, and per RANO for participants with primary CNS tumours, and INRC for neuroblastoma. An objective response is defined as a CR or PR per disease-specific response criteria, confirmed ≥4 weeks apart in two separate tumour assessments. Participants not meeting these criteria (including participants without a postbaseline tumour assessment) will be considered non-responders.
Patients with ALK fusion-positive solid or CNS tumours for whom prior treatment has proven to be ineffective or for whom there is no satisfactory treatment available, less than 18 years of age, were eligible. […]

[5] = Peters et al., 2017; cited from earlier work
[6] = 8 patients, Part 1 safety run-in
[7] = 7 patients evaluable for efficacy (ALCL patient excluded), investigator, data cut off Jun. 12, 2023
[8] = 7 patients evaluable for efficacy, investigator

CCc1cc2c(cc1N1CCC(N3CCOCC3)CC1)C(C)(C)c1[nH]c3cc(C#N)ccc3c1C2=O [Alectinib, 9-ethyl-6,6-dimethyl-8-(4-morpholin-4-yl-piperidin-1-yl)-11-oxo-6,11-dihydro-5H-benzo[b]carbazole-3-carbonitrile]
Negative chronotropic effect [1]: known negative chronotropic effect of alectinib that may result in bradycardia
AE-related deaths [2, 6]: no AE-related deaths
Dose Limiting Toxicities [2, 6]: No Dose Limiting Toxicities were reported
New safety signals [2, 6]: no new safety signals detected
Patients with Grade ≥3 related AE [2, 6]: 2 patients
Patients with a related Adverse Event (AE) [2, 6]: Seven
Tolerability ([2]; paediatric patients with ALK-fusion positive solid or CNS tumours): generally well tolerated
Inhibitory activity on FGFR2 [3]: no inhibitory activity
Best Overall Response: responders (CR + PR), number of patients [4, 7]: 4 patients
Best Overall Response: responders (CR + PR), percent of patients [4, 7]: 57.1%
Best Overall Response: CR, number of patients [4, 8]: 1 CR
Best Overall Response: PR, number of patients [4, 8]: 3 PR
Best Overall Response: Stable Disease, number of patients [4, 8]: 2 patients
Best Overall Response: Stable Disease, percent of patients [4, 8]: 28.6%
Best Overall Response (Investigator): Complete Response (CR), number of patients ([4]; N = 8, all enrolled patients): 1
Best Overall Response (Investigator): Partial Response (PR), number of patients ([4]; N = 8, all enrolled patients): 4
Best Overall Response (Investigator): Progressive Disease (PD), number of patients ([4]; N = 8, all enrolled patients): 0
Best Overall Response (Investigator): Stable Disease (SD), number of patients ([4]; N = 8, all enrolled patients): 2
Best Overall Response (Investigator): Total Responders, number of patients ([4]; N = 8, all enrolled patients): 5
Best Overall Response (Investigator, %): Complete Response (CR) ([4]; N = 8, all enrolled patients): 12.5%
Best Overall Response (Investigator, %): Partial Response (PR) ([4]; N = 8, all enrolled patients): 50.0%
Best Overall Response (Investigator, %): Progressive Disease (PD) ([4]; N = 8, all enrolled patients): 0.0%
Best Overall Response (Investigator, %): Total Responders ([4]; N = 8, all enrolled patients): 62.5%
Response, in words ([4]; conclusion, paediatric patients with ALK-fusion positive solid or CNS tumours): majority of patients experiencing a response
CNS penetration [5]: CNS penetrant
